Measurements taken from patent US20220175750A1, “SUSTAINED RELEASE FORMULATION FOR LOCAL DELIVERY OF CDK9 INHIBITORS” (The Regents of the University of California, priority 2019, published 2022).

Key:
[1] = Microparticle drug loading / loading efficiency; type: physicochemical; details: for incorporation of inhibitor (adequacy): PLGA
Procedure: (§1) FIG. 6: Flavopiridol was encapsulated at 1% w/v ratio in PLGA microparticles (MPs) synthesized using Purasorb® PDLG 5004A (Corbion) in methylene chloride at 20% w/v ratio and vortexed vigorously for 30 seconds after addition of polyvinyl alcohol (10%) at 2:1 ratio. The solution was then added dropwise to 1% PVA and mixed overnight, with 3× washes next day and lyophilized overnight. […] FIG. 6B: Linear standard curve for different concentrations of flavopiridol in solution of dissolved PLGA in DMSO acquired with Nanodrop 2000 Spectrophotometer at 274 nm. […] FIG. 6D: SEM image of flavopiridol MPs using a Phillips XL30 Microscope.
Preparation of poly(lactic-co-glycolic) acid (PLGA) or polycaprolactone (PCL) particles with CDK9 inhibitors was performed using a single emulsion-solvent evaporation technique. Briefly, 500 mg of PLGA or PCL was dissolved in 2.5 mL of 2% v/v dimethylsulfoxide in methylene chloride (for PLGA) or chloroform (for PCL). […] The solutions were vortexed at full speed (30 seconds for PLGA or 45 seconds for PCL) to form microparticles. The microparticle suspensions were transferred to 150 mL of 1% poly(vinyl alcohol), and stirred for 24 hours. The particles were pelleted, washed with water, lyophilized and stored at −20° C. for further use. Size distribution was measured using an AccuSizer model 770 optical particle sizer (Particle Sizing Systems).
For example, SNS-032 has a 30.7% loading efficiency, such that of the 2 g of starting SNS-032, about 0.61 g was encapsulated in the PLGA microparticles. Lower amounts of drug encapsulation result in less inhibitor per microparticle. If the loading efficiency decreases below a certain threshold, the amount of microparticles required to deliver a therapeutic dose of the CDK9 inhibitor can become prohibitive (for cost, efficiency, injection volume, and potentially, an adverse reaction of the treated subject to the administered microparticles).

[2] = In vitro release of CDK9 inhibitor from microparticles in PBS-Tween; type: physicochemical; details: PLGA
Procedure: as §1
Flavopiridol release from the particles was quantified over 42 days in PBS-Tween®, by absorbance at 247 nm.
(B) Release: The release characteristics of the microparticles prepared above were determined using the procedure set forth in Example 2.

[3] = as above; type: physicochemical; details: PCL
[4] = test system: NFκB target genes; assay: Gene expression in primary human chondrocytes treated with IL-1β with or without flavopiridol; type: cell-based
Text: CDK9 inhibition effectively suppresses the transcription of primary inflammatory response genes.
CDK9 inhibitors exert effects on the inflammatory response pathway.

[5] = test system: ACL-rupture in mice; assay: Primary response gene mRNA expression after ACL-rupture knee injury, systemic flavopiridol; type: in vivo

incorporation of inhibitor (adequacy) [1] | incorporation of inhibitor (adequacy) ([1]; listed as dinaciclib) | % loading efficiency ([1]; PCL microparticles) [%] | % loading efficiency ([1]; PLGA microparticles) [%] | amount encapsulated in the PLGA microparticles ([1]; of the 2 g of starting SNS-032) | % release ([2]; Day 1) [%] | % release ([2]; Day 3) [%] | % release ([2]; Day 5) [%] | % release ([3]; Day 3) [%] | % release ([3]; Day 7) [%] | Compound | average magnitude of repression (of maximum induction) of IL-1β-induced genes ([4]; 300 nM flavopiridol, 10 ng/mL IL-1β, 5 hours) [%] | number of IL-1β-induced genes repressed by flavopiridol co-treatment ([4]; of 67 genes induced by IL-1β (84 NFκB target genes tested)) | repeated versus single administration (IL-1β, IL-6 gene expression) ([5]; 0, 1, or 2 administrations) | mRNA expression of pro-inflammatory cytokines IL-1β and IL-6 at the injured site ([5]; 4-8 hours post-injury, intraperitoneal injection) | window after injury during which flavopiridol is effective at preventing transcription of primary response genes ([5]; delay before administration) | house-keeping gene 18S rRNA, Collagen Type 2 and aggrecan expression ([5]; mouse, in vivo)
not encapsulated effectively | failed to incorporate an adequate amount |  |  |  |  |  |  |  |  | CCc1cnn2c(NCc3ccc[n+]([O-])c3)cc(N3CCCC[C@H]3CCO)nc12 [Dinaciclib] |  |  |  |  |  | 
 |  | 0.3 | 30.7 | about 0.61 g | 4.0 | 5.4 | 7.0 | 0 | 0 | CC(C)(C)c1cnc(CSc2cnc(NC(=O)C3CCNCC3)s2)o1 [SNS-032] |  |  |  |  |  | 
 |  |  |  |  |  |  |  |  |  | CN1CC[C@H](c2c(O)cc(O)c3c(=O)cc(-c4ccccc4Cl)oc23)[C@H](O)C1 [flavopiridol, 2-(2-chlorophenyl)-5,7-dihydroxy-8-[(3S,4R)-3-hydroxy-1-methyl-4-piperidinyl]-4-chromenone] | > 86 | 59 | more effective than a single administration | effectively and selectively suppressed | at least 3 hours | not affected
 |  | 1.1 | 59.9 |  | 3.4 | 4.8 | 6.5 | 0.36 | 0.43 | Voruciclib |  |  |  |  |  | 
